According to the NIST ThermoML archive (doi:10.1016/j.jct.2007.02.004):
± gives the expanded uncertainty stated by the source.

Assays:
[1] = 293.15 K; 101.33 kPa; Liquid
[2] = refractive index (Na D-line) (dimensionless); conditions: 293.15 K; 101.33 kPa; Liquid; Standard Abbe refractometry
[3] = xn = mol fraction of the nth substance listed; conditions: 101 kPa, Liquid

CCOC(=O)OCC [diethyl carbonate]
Conditions | mass density [kg/m3] | refractive index
[1] | 974.65 ± 0.28 | –
[2] | – | 1.3845 ± 0.0007

CCCCCCO [hexan-1-ol]
Conditions | mass density [kg/m3] | refractive index
[1] | 818.84 ± 0.97 | –
[2] | – | 1.4178 ± 0.0008

CCOC(=O)OCC [diethyl carbonate] + CCCCCCO
mass density [kg/m3], [3]
Conditions | 293.15 K | 303.15 K | 313.15 K | 323.15 K
x1 = 0.0502 | 825.96 ± 0.72 | 818.55 ± 0.74 | 811.04 ± 0.75 | 803.29 ± 0.77
x1 = 0.1123 | 834.86 ± 0.7 | 827.16 ± 0.71 | 819.37 ± 0.73 | 811.3 ± 0.74
x1 = 0.1499 | 840.29 ± 0.68 | 832.48 ± 0.7 | 824.54 ± 0.71 | 816.2 ± 0.73
x1 = 0.2103 | 849.1 ± 0.65 | 841.04 ± 0.67 | 832.78 ± 0.69 | 824.2 ± 0.71
x1 = 0.2508 | 855.05 ± 0.64 | 846.79 ± 0.65 | 838.35 ± 0.67 | 829.57 ± 0.69
x1 = 0.3121 | 864.19 ± 0.61 | 855.69 ± 0.63 | 846.97 ± 0.65 | 837.88 ± 0.67
x1 = 0.3576 | 871.02 ± 0.59 | 862.23 ± 0.61 | 853.42 ± 0.63 | 844.05 ± 0.65
x1 = 0.4113 | 879.15 ± 0.57 | 870.21 ± 0.59 | 861.12 ± 0.61 | 851.48 ± 0.63
x1 = 0.4632 | 887.08 ± 0.55 | 877.88 ± 0.57 | 868.59 ± 0.59 | 858.73 ± 0.61
x1 = 0.5111 | 894.51 ± 0.53 | 885.13 ± 0.55 | 875.61 ± 0.57 | 865.59 ± 0.59
x1 = 0.552 | 900.88 ± 0.51 | 891.35 ± 0.53 | 881.55 ± 0.55 | 871.51 ± 0.57
x1 = 0.6008 | 908.59 ± 0.48 | 898.87 ± 0.51 | 888.91 ± 0.53 | 878.65 ± 0.55
x1 = 0.6498 | 916.39 ± 0.46 | 906.42 ± 0.48 | 896.35 ± 0.5 | 885.85 ± 0.53
x1 = 0.7108 | 926.19 ± 0.43 | 915.93 ± 0.45 | 905.65 ± 0.48 | 894.96 ± 0.5
x1 = 0.7554 | 933.45 ± 0.41 | 923.08 ± 0.43 | 912.55 ± 0.46 | 901.77 ± 0.48
x1 = 0.8112 | 942.65 ± 0.38 | 932.03 ± 0.41 | 921.16 ± 0.43 | 910.41 ± 0.46
x1 = 0.8501 | 949.13 ± 0.37 | 938.29 ± 0.39 | 927.49 ± 0.41 | 916.42 ± 0.44
x1 = 0.9002 | 957.5 ± 0.34 | 946.57 ± 0.37 | 935.57 ± 0.39 | 924.3 ± 0.42
x1 = 0.9555 | 966.89 ± 0.31 | 955.77 ± 0.34 | 944.49 ± 0.36 | 933.24 ± 0.39

CC(=O)c1ccccc1 [acetophenone]
Conditions | mass density [kg/m3] | refractive index
[1] | 1027.93 ± 0.6 | –
[2] | – | 1.5336 ± 0.0008

CC(=O)c1ccccc1 [acetophenone] + CCOC(=O)OCC
mass density [kg/m3], [3]
Conditions | 293.15 K | 303.15 K | 313.15 K | 323.15 K
x2 = 0.0511 | 1025.44 ± 0.44 | 1016.4 ± 0.42 | 1007.58 ± 0.39 | 998.79 ± 0.38
x2 = 0.1014 | 1023.08 ± 0.43 | 1014.09 ± 0.4 | 1005.19 ± 0.38 | 996.27 ± 0.37
x2 = 0.1501 | 1020.74 ± 0.41 | 1011.77 ± 0.39 | 1002.73 ± 0.36 | 993.68 ± 0.37
x2 = 0.1996 | 1018.43 ± 0.4 | 1009.35 ± 0.37 | 1000.2 ± 0.35 | 991.08 ± 0.36
x2 = 0.2465 | 1016.19 ± 0.38 | 1007.04 ± 0.36 | 997.78 ± 0.34 | 988.56 ± 0.36
x2 = 0.3041 | 1013.28 ± 0.36 | 1004.02 ± 0.34 | 994.63 ± 0.34 | 985.24 ± 0.36
x2 = 0.3467 | 1011.14 ± 0.35 | 1001.78 ± 0.33 | 992.31 ± 0.34 | 982.8 ± 0.36
x2 = 0.4001 | 1008.46 ± 0.34 | 998.99 ± 0.32 | 989.35 ± 0.34 | 979.74 ± 0.36
x2 = 0.4507 | 1005.87 ± 0.32 | 996.27 ± 0.31 | 986.55 ± 0.33 | 976.77 ± 0.35
x2 = 0.4888 | 1003.88 ± 0.31 | 994.18 ± 0.31 | 984.35 ± 0.33 | 974.49 ± 0.35
x2 = 0.5506 | 1000.64 ± 0.29 | 990.73 ± 0.31 | 980.71 ± 0.33 | 970.76 ± 0.35
x2 = 0.6038 | 997.77 ± 0.29 | 987.73 ± 0.31 | 977.48 ± 0.33 | 967.47 ± 0.35
x2 = 0.6498 | 995.25 ± 0.29 | 985.06 ± 0.31 | 974.69 ± 0.33 | 964.54 ± 0.35
x2 = 0.7104 | 991.92 ± 0.29 | 981.54 ± 0.31 | 971.04 ± 0.33 | 960.63 ± 0.35
x2 = 0.7513 | 989.53 ± 0.29 | 979.05 ± 0.31 | 968.47 ± 0.33 | 957.86 ± 0.36
x2 = 0.8078 | 986.29 ± 0.29 | 975.68 ± 0.31 | 964.89 ± 0.33 | 954.13 ± 0.36
x2 = 0.8522 | 983.66 ± 0.29 | 972.91 ± 0.31 | 961.99 ± 0.34 | 951.07 ± 0.36
x2 = 0.8993 | 980.83 ± 0.29 | 969.91 ± 0.31 | 958.99 ± 0.34 | 947.76 ± 0.36
x2 = 0.9488 | 977.82 ± 0.29 | 966.78 ± 0.32 | 955.63 ± 0.34 | 944.32 ± 0.37

CC(=O)c1ccccc1 [acetophenone] + CCCCCCO
mass density [kg/m3], [3]
Conditions | 293.15 K | 303.15 K | 313.15 K | 323.15 K
x1 = 0.0498 | 828.67 ± 0.72 | 821.42 ± 0.74 | 813.97 ± 0.75 | 806.47 ± 0.77
x1 = 0.1009 | 838.84 ± 0.7 | 831.49 ± 0.72 | 823.85 ± 0.73 | 816.28 ± 0.75
x1 = 0.1517 | 848.99 ± 0.68 | 841.56 ± 0.7 | 833.75 ± 0.71 | 826.11 ± 0.73
x1 = 0.2106 | 860.83 ± 0.66 | 853.32 ± 0.68 | 845.32 ± 0.69 | 837.59 ± 0.71
x1 = 0.2474 | 868.27 ± 0.65 | 860.71 ± 0.66 | 852.58 ± 0.68 | 844.8 ± 0.69
x1 = 0.3028 | 879.54 ± 0.62 | 871.9 ± 0.64 | 863.61 ± 0.66 | 855.74 ± 0.67
x1 = 0.3426 | 887.68 ± 0.61 | 879.99 ± 0.62 | 871.57 ± 0.64 | 863.65 ± 0.66
x1 = 0.3978 | 899.04 ± 0.59 | 891.28 ± 0.6 | 882.7 ± 0.62 | 874.71 ± 0.64
x1 = 0.4512 | 910.1 ± 0.57 | 902.26 ± 0.58 | 893.55 ± 0.6 | 885.48 ± 0.62
x1 = 0.4985 | 919.95 ± 0.55 | 912.05 ± 0.57 | 903.23 ± 0.58 | 895.1 ± 0.6
x1 = 0.5526 | 931.29 ± 0.53 | 923.31 ± 0.54 | 914.38 ± 0.56 | 906.19 ± 0.58
x1 = 0.6071 | 942.79 ± 0.5 | 934.73 ± 0.52 | 925.7 ± 0.54 | 917.44 ± 0.55
x1 = 0.6491 | 951.7 ± 0.48 | 943.59 ± 0.5 | 934.49 ± 0.52 | 926.17 ± 0.53
x1 = 0.7101 | 964.72 ± 0.46 | 956.53 ± 0.47 | 947.35 ± 0.49 | 938.95 ± 0.51
x1 = 0.7485 | 972.96 ± 0.44 | 964.73 ± 0.46 | 955.5 ± 0.47 | 947.06 ± 0.49
x1 = 0.8019 | 984.49 ± 0.42 | 976.21 ± 0.43 | 966.9 ± 0.45 | 958.4 ± 0.47
x1 = 0.8521 | 995.4 ± 0.39 | 987.06 ± 0.41 | 977.72 ± 0.43 | 969.16 ± 0.45
x1 = 0.9045 | 1006.85 ± 0.4 | 998.46 ± 0.39 | 989.09 ± 0.41 | 980.48 ± 0.42
x1 = 0.9554 | 1018.05 ± 0.43 | 1009.61 ± 0.41 | 1000.23 ± 0.38 | 991.56 ± 0.4
